# Measurements published in publication PMC8861642, “Cryo-electron microscopy reveals how acetogenins inhibit mitochondrial respiratory complex I” (The Journal of Biological Chemistry, 2022).
# Where two headings read alike, the source gives them in different places.
# How the values were obtained:
# [1] = biological target: complex I (NADH:ubiquinone oxidoreductase) in bovine submitochondrial particles; settings: internal bullatacin control, cited from earlier work
# mouse complex I = biological target: T1, mouse complex I (Mus musculus, UniProt P03888+Q91WD5+Q9DC70); assay: NADH:DQ assay of purified compound 1-copurified mouse complex I, initial rates against control sample; type: biochemical; settings: first 25 s, 5 μM DQ, 0.5 μg ml−1 AOX, 200 μM NADH; after copurification with 200 μM compound 1 and size-exclusion chromatography; SD, n = 3 technical repeats; read-out: inhibition of initial rates (proportion of complex I molecules containing the inhibitor)
# T1 construct: hearts were obtained from C57BL/6 mice; from tissue; host or cells: heart mitochondria of C57BL/6 mice
# Description: To better understand the mode of acetogenin binding to complex I, the inhibitor-bound enzyme was prepared for cryo-EM analysis. The acetogenin ortholog inhibitor selected for study here is compound 1; it contains a γ-lactone group, a 12-carbon aliphatic chain (linker) that connects the γ-lactone to a central hydroxylated bis-tetrahydrofuran (THF) group, and a final 10-carbon aliphatic extension (tail) (Figs. 1 and 2). […] Furthermore, substrates (NADH and decylubiquinone, DQ) were added alongside to stimulate complex I turnover, along with an alcohol dehydrogenase and an alternative oxidase for substrate regeneration, to ensure exposure of the high-affinity binding site that may only be present in specific intermediates. Excess compound 1, substrates, and regenerating enzymes were then removed by size-exclusion chromatography to eliminate nonspecifically bound inhibitor molecules. […]
# After ∼5 min at 4 °C incubation, 20 μl of the mixture was removed as a control, and the remaining sample was added to glass vials containing enough dried compound 1, from an ethanol stock, to give a final 200 μM of compound 1, resuspended with gentle pipetting. […] The specific activity of the control [measured in 0.15% asolectin (20 % soy PC), 0.15% CHAPS, and 200 μM DQ] was 9.6 ± 0.4 μmol min^−1 mg^−1.
# [2] = ref 34, read-out: IC50† (complex I inhibition)
# [3] = ref 33, read-out: IC50* (complex I inhibition)
molecule,measurement,setting,value
CC(=O)OC(CCCCCCCCCCCCC1=CC(C)OC1=O)C1CCC(C2CCC(C(CCCCCCCCCCCCC3=CC(C)OC3=O)OC(C)=O)O2)O1 (centres unmarked) [Compound 13],IC50,[1]; [2],18 ± 2 nM
same,IC50† (complex I inhibition),[1]; ref 34,maintains its high affinity
bullatacin [reference compound],IC50,[1]; [3],0.9 ± 0.2 nM
same,IC50,[1]; [2],1.2 ± 0.2 nM
CC1C=C(CCCCCCCCCCCCC(O)C2CCC(C3CCC(C(O)CCCCCCCCCCCCC4=CC(C)OC4=O)O3)O2)C(=O)O1 (centres unmarked) [Compound 9],IC50,[1]; [2],1.2 nM
CCCCCCCCCCC(O)C1CCC(C2CCC(C(O)CCCCCCCCCCCCC3=CCOC3=O)O2)O1 (centres unmarked) [Compound 2],IC50,[1]; [3],1.2 ± 0.1 nM
CCCCCCCCCCC(O)C1CCC(C2CCC(C(O)CCCCCCCCCCCCC3=CCC(C)OC3=O)O2)O1 (centres unmarked) [Compound 3],IC50,[1]; [3],1.3 ± 0.1 nM
CCCCCCCCCCC(O)C1CCC(C2CCC(C(CCCCCCCCCCCCC3=CC(C)OC3=O)OC(C)=O)O2)O1 (centres unmarked) [Compound 7],IC50,[1]; [3],2.1 nM
CC1C=C(CCCCCCCCCCCCC(O)C2CCC(C3CCC(C(O)CCCCCCCCCCCCC4=CC(C)OC4=O)O3)O2)C(=O)O1 (centres unmarked) [Compound 11],IC50,[1]; [2],1.2 ± 0.2 nM
CCCCCCCCCCC(OC(C)=O)C1CCC(C2CCC(C(CCCCCCCCCCCCC3=CC(C)OC3=O)OC(C)=O)O2)O1 (centres unmarked) [Compound 8],IC50,[1]; [3],7.2 nM
CC(=O)OC(CCCCCCCCCCCCC1=CC(C)OC1=O)C1CCC(C2CCC(C(O)CCCCCCCCCCCCC3=CC(C)OC3=O)O2)O1 (centres unmarked) [Compound 12],IC50,[1]; [2],2 ± 0.2 nM
CCCCCCCCCCC(O)C1CCC(C2CCC(C(O)CCCCCCCCCCCCC3=CC(C)OC3=O)O2)O1 (centres unmarked) [Compound 1],inhibition at 200 µM,mouse complex I,77 ± 5%
same,IC50,[1]; [3],1.3 nM
same,IC50,[1]; [2],1.3 ± 0.1 nM
